Assays:
[1] = pKa of the ionizable lipid measured in the LNP (TNS pKa); type: physicochemical; details: for DpKa: ACD pKa versus TNS pKa; for pKa: lipid nanoparticle (LNP) containing the ionizable lipid
From the text: In some embodiments, the “LNP lipids” are MC3, DLin, and/or KC2 as shown below. The table highlights the pKa of the ionizable lipid measured in the LNP (TNS pKa) versus the pKa in aqueous medium predicated by a commercial software ACDLabs Percepta.:
In one embodiment, the amount of nucleic acid is represented by the LNP mole ratio of the amine on the ionizable lipid to the phosphate groups on the nucleic acid backbone and is typically about 3 to about 6. In one embodiment, the pKa of the LNP is in the about 6 to about 7 range corresponding to the pH in the early endosome. A link between the pKa of ionizable lipid in the LNP and gene silencing efficiency has shown that an LNP pKa in the range of about 6 to about 7 produced more silencing for the ionizable lipid DLinDMA and was associated with promoting lipid structures that could disrupt the membrane of the endosome. The pKa of the LNP may be measured using the pH-dependence of fluorescence enhancement of the anionic dye TNS.

HEK293 cells = experiment: Firefly Luciferase Assay for mRNA Delivery Efficiency; type: cell-based; details: for potency when sodium acetate concentration was reduced from 60 mM to 25 mM / potency when mixed at the higher concentration 1.5 mg/ml vs the lower concentration 0.25 mg/ml: Example 12; for potency when mixed at the higher concentration 1.5 mg/ml vs the lower concentration 0.25 mg/ml / LNP potency at the higher versus lower mixing concentration: same dose; for LNP potency at the higher versus lower mixing concentration: NP 4, sodium acetate pH 4
Procedure: Summary: LNPs were formulated using total lipid concentration of 6 to 27 mM comprised of KC2/DSPC/Cholesterol/PEG-DMG (50:10:38.5:1.5 mol %). Each one of the lipids were solubilized in ethanol until a clear solution was observed. The four lipids were combined to get 50 mM total lipid concentration (25/5/19.25/0.75 mM respectively), then serial dilutions were done to reach 6 to 27 mM. […] Purified mRNA was ethanol precipitated, washed and resuspended in nuclease-free water to reach concentrations of 1 mg/mL. […] 16 μl Lipid Mix and 341 mRNA solution were mixed on Setting 3 and ejected into 48 μl 1×DPBS pH 7.4. The formed LNPS were then diluted into an additional 96 μl 1×DPBS pH 7.4. LNPs were then dialyzed against 1×DPBS pH 7.4 for 4×1 hr. LNPs were then diluted so that 32 ul contained 200 ng and 12K HEK293 cells were transfected with the same 200 ng dose but manufactured at different concentrations in the microfluidic mixer.
A. Firefly Luciferase Assay for mRNA Delivery Efficiency. After 24 hours of transfection, transfected cells were conditioned to room temperature for 30 minutes prior the Firefly Luciferase Assay. Quantilum Recombinant Luciferase standard curve was prepared in 10% EMEM in 5-fold serial dilutions. 50 ul of each standard point from the range of 3.9×10^−5 mg/ml to 4.88×10^−3 mg/ml were included in the microplate as a positive enzyme activity control (data not shown) to maintain a linearity of 10^7 RLU/mg/ml. The ONE-Glo substrate, previously conditioned to room temperature for at least 4 hours, was added to each untransfected, transfected and Quantilum wells in a ratio 1:1. Assay plates were incubated for 3 minutes in darkness and immediately introduced into the Cytation 5 Cell Imaging Multi-Mode Reader (Biotek) to read luminescence.
Each one of the lipids were solubilized in ethanol until a clear solution was observed. […] To prepare 75 mM total lipid concentration (37.5/7.5/28.88/1.13 mM respectively), KC2/DL-ADDE-C2C2-PipZ/BODD-ADDE-C2C4-PipZ and Cholesterol were mixed first, same for DSPC and PEG to solubilize both solutions in ethanol before combining them to reach 75 mM. […] Purified mRNA was ethanol precipitated, washed and resuspended in nuclease-free water to reach concentrations of 4.4 mg/ml. […] 16 μl Lipid Mix and 341 mRNA solution were mixed on Setting 3 and ejected into 48 μl 1×DPBS pH 7.4. The formed LNPS were then diluted into an additional 96 μl 1×DPBS pH 7.4. LNPs were then dialyzed against 1×DPBS pH 7.4 for 4×1 hr. LNPs were then diluted so that 32 ul contained 25-200 ng and 12K HEK293 cells were transfected with the same dose but manufactured at different concentrations in the microfluidic mixer.

mice = experiment: In vivo and ex vivo Firefly Luciferase expression (IVIS); details: for higher potency in vivo of buffer-free assembly compared to using a buffer: by IVIS, high lipid and mRNA mixing concentrations, 0.25 protons per ionizable lipid, NP 4
Procedure: C: In vivo Firefly Luciferase expression in IM administration. 5 ug of encapsulated mRNA were injected in mice in intramuscular (I.M.), intradermal (ID.) and intravenous (I.V.) injections. ROIs were calculated using the IVIS system. Imaging were performed at 4 and 20 hours.
(§1) C: In vivo Firefly Luciferase expression in IM administration. 0.5-5 ug of total mRNA was injected in mice in intramuscular (I.M.) injections. Luciferin was administrated intraperitoneally at 4 hours post-injection and luciferase expression monitored by live animal imaging at 4 and 24 hours. ROIs were calculated using the IVIS system.
as §1, with “D:” for “C:”, “In vivo and ex” for “In”, “administration for LNPs mixed at 1.5 mg/ml. 1” for “administration. 0.5-5”, “4” for “4 and 24”, “system. For Ex Vivo, organs were extracted and imaged immediately after In Vivo imaging.” for “system.”
E: In vivo and ex vivo Firefly Luciferase expression in IV administration for LNPs mixed at 1.5 mg/ml. 1 ug of total mRNA was injected in mice in […] (I.V.) injections. Luciferin was administrated intraperitoneally at 4 hours post-injection and luciferase expression monitored by live animal imaging at 4 hours. ROIs were calculated using the IVIS system. For Ex Vivo, organs were extracted and imaged immediately after In Vivo imaging.

[2] = pKa of the ionizable lipid measured in the LNP; published ionizable lipids; cited from earlier work
SARS-CoV-2 = experiment: In vivo protection against viral challenge; details: SARS-CoV-2 immunogen mRNA, mice, I.M.
Procedure: Summary: LNPs were formulated using total lipid concentration of 10-75 mM comprised of several ionizable/DSPC/Cholesterol/PEG-DMG (47-50:10-13:37-38.5:1.5-2 mol %). Each one of the lipids were solubilized in ethanol until a clear solution was observed. The four lipids were combined to get 75 mM total lipid concentration then serial dilutions were done to reach 10 mM. Codon optimized 2019-nCoV Wuhan S-2P (Covid) sequence was cloned into an mRNA plasmid (optimized 3′ and 5′ UTR and containing a 101 polyA tail (SEQ ID NO: 4)) for co-transcriptional capping, in vitro transcribed using N1 methyl pseudouridine modified nucleoside and cellulose purified to remove dsRNA. Purified mRNA was ethanol precipitated, washed and resuspended in nuclease-free water to reach concentrations of 5.5 mg/ml. […] 16 μl Lipid Mix and 32 μl mRNA solution were mixed on Setting 3 and ejected into 48 μl 1×DPBS pH 7.4. The formed LNPS were then diluted into an additional 96 μl 1×DPBS pH 7.4. LNPs were then dialyzed against 1×DPBS pH 7.4 for 4×1 hr. LNPs were then diluted so that 32 ul contained 25-200 ng and 12K HEK293 cells were transfected with the same dose but manufactured at different concentrations in the microfluidic mixer.
A: In vivo protection against viral challenge—Survival proportion, Weight and Temperature in Challenge model. […]

Row | Compound | DpKa [1] | pKa [1] | LNP potency increase when reducing sodium acetate from 50 mM to 25 mM (HEK293 cells; 1.5 mg/ml of mRNA, pH 4, NP 4) [%] | potency when sodium acetate concentration was reduced from 60 mM to 25 mM (HEK293 cells) | potency when mixed at the higher concentration 1.5 mg/ml vs the lower concentration 0.25 mg/ml (HEK293 cells) | delivery efficiency at the same dose with increased mixing concentration (HEK293 cells; in vitro, KC2/DSPC/Cholesterol/PEG-DMG LNPs, NP 4) | LNP potency at the higher versus lower mixing concentration (HEK293 cells; in vitro) | LNP potency increase when reducing sodium acetate concentration from 25 mM to 10 mM (HEK293 cells; mRNA concentration of 0.25 mg/ml, pH 4, NP 4) [×] | delivery efficiency at the same dose with increased mixing concentration (mice; in vivo, 5 ug of encapsulated mRNA, lipids 5 to 100 mM, mRNA 0.1 to 2 mg/ml) | TNS pKa [2] | Protective against lethal challenge (SARS-CoV-2; 0.5 ug) [%] | potency on increasing pH from 4 to 5 (HEK293 cells; Example 13, 1.5 mg/ml mRNA in 25 mM NaOAc) | higher potency in vivo of buffer-free assembly compared to using a buffer (mice; IM administration) [×] | higher potency in vivo of buffer-free assembly compared to using a buffer (mice; IV administration) [×] | Protective against lethal challenge (SARS-CoV-2; 0.25 ug) [%]
1 | CCCCC/C=C\C/C=C\CCCCCCCCC1(CCCCCCCC/C=C\C/C=C\CCCCC)OCC(CCN(C)C)O1 (centres unmarked) [KC2] | 2.6 | ~6.5 | 44 | increased potency | large increase in potency | increased delivery efficiency at the same dose only at the lowest NaOAc concentration of 50 mM | LNP potency increases | 2.2 | increased delivery efficiency | 6.7 |  |  |  |  | 
2 | CCCCC/C=C\C/C=C\CCCCCCCCC(CCCCCCCC/C=C\C/C=C\CCCCC)OC(=O)CCCN(C)C [MC3] | 3 | ~6.5 |  | increased potency | large increase in potency |  | LNP potency increases |  |  | 6.4 | 100 |  |  |  | 
3 | CCCCCCCCC(CCCCCCCC)COC(=O)CCN(CCCCN1CCN(C)CC1)CCC(=O)OCC(CCCCCCCC)CCCCCCCC [BOD-C2/C4-PipZ] |  | ~6.5 |  | increased potency | large increase in potency |  | LNP potency increases |  |  |  |  | increases potency | 3 | 3 | 100
4 | CCCCC/C=C\C/C=C\CCCCCCCCOCC(CN(C)C)OCCCCCCCC/C=C\C/C=C\CCCCC (centres unmarked) [DLin] | 1.8 |  |  |  |  |  |  |  |  |  |  |  |  |  | 
5 | CCCCC/C=C\C/C=C\CCCCCCCCOC(=O)CCN(CCC(=O)OCCCCCCCC/C=C\C/C=C\CCCCC)CCN1CCN(C)CC1 (racemic) [DL-C2/C2-PipZ] |  | ~7.5 |  | did not show either effect | did not |  |  |  |  |  |  |  |  |  | 
